Results on four compounds are retold here after PMC8658963, “Synthesis and Evaluation of Trypanocidal Activity of Chromane-Type Compounds and Acetophenones” (Molecules, 2021).

One series in a line: in vitro. The conditions noted are these: human, Cytotoxicity (LC50). As for the experimental part: (§1) Cytotoxicity was evaluated in the human monocyte cell line U-937 (ATCC CRL-1593.2) at the exponential growth phase, adjusted at 1 × 10^5 cells/mL in complete RPMI-1640 medium (RPMI-1640 enriched with 200 mM L-glutamine, 10% inactivated fetal bovine serum (FBS) and 1% of a mixture of 10,000 IU/mL penicillin plus […] streptomycin). Then, in each well of a 96-well tissue culture plate were dispensed […] of cells plus […] of each compound (as one of six serials 1:2 dilution concentrations starting at 368 µM prepared in the same medium). Doxorubicin was included as an internal positive control under the same dilution pattern, starting at 18 µM whereas unexposed cells were used as negative controls. Afterward, cells were incubated for 72 h at 37 °C and 5% CO2. Cell viability was assayed by the MTT reduction assay according to the optical density (O.D) at 570 nm of the resulting reduction of formazan in a Varioskan Flash Multimode Reader (Thermo Scientific, Waltham, MA, USA). Nonspecific absorbance was corrected by subtracting the O.D of the blank solution that corresponded to complete RPMI-1640 medium. The assay was done in triplicate in at least two independent experiments.
(§2) The cytotoxicity was expressed as the medial lethal concentration (LC50), while the trypanocidal activity was defined as the median effective concentration (EC50) according to the percentage of inhibition of cells and parasites, respectively, as described elsewhere. Both LC50 and EC50 were calculated by the Probit analysis. […] Similarly, the trypanocidal activity was graded according to EC50 values, based on the hit criteria proposed by others into high when EC50 was lower than 10 μM, moderate when EC50 values were higher than 10 μM but lower than 50 μM and, low when EC50 was higher than 50 μM. The relation between cytotoxicity and trypanocidal activity was expressed as the index of selectivity (IS) that corresponded to the ratio when dividing the LC50 by the EC50.

Series [1] relates to human monocyte cell line U-937 (ATCC CRL-1593.2). Kind of series: Cytotoxic activity, MTT reduction assay, 72 h. As to conditions: for Cytotoxicity level (grade): U937 cells, graded by LC50; for CC50: human, 72 h. As for the experimental part:
as §1, §2

For series [2], the system named is intracellular amastigotes of T. cruzi (Tulahuen strain transfected with the β-galactosidase gene). Kind of series: Anti-trypanosomal activity, β-galactosidase readout in infected U937 macrophages, 72 h. In kind it is cell-based, Trypanosoma cruzi. The conditions noted are these: for Trypanocidal activity compared with the control drug BNZ: T. cruzi intracellular amastigotes, result in words; for SI (index of selectivity, IS = LC50/EC50): LC50 in U937 cells divided by EC50 against T. cruzi. As for the experimental part: This activity was carried out in intracellular amastigotes of T. cruzi (Tulahuen strain transfected with the β-galactosidase gene. Briefly, metacyclic trypomastigotes were cultured at 26 °C for ten days in a modified NNN (Novy−McNeal−Nicolle) medium. U937 cells were seeded in 96-well tissue culture plates at a density of 2.5 × 10^4 cells in 100 μL of complete RPMI-1640 medium/well and exposed for 24 h to phorbol myristate acetate (1 ng/mL) to induce transformation of monocytes into macrophages. Cells were infected with trypomastigotes (5 parasites per cell) and incubated for 24 h at 37 °C, 5% CO2. Wells were washed twice with warm phosphate buffer solution (PBS) to remove noninternalized parasites, and then were added 100 μL of complete RPMI-1640 medium and 100 μL of each concentration of compound (50, 12.5, 3.125 μM). BNZ, at the same concentrations, was used as internal control for trypanocidal activity (positive control), and nontreated cells as controls for infection (negative control). After 72 h of incubation 37 °C, 5% CO2, the viability of intracellular amastigotes was determined by measuring the β-galactosidase activity. For this, 100 μM of Chlorophenol red-β-D- galactopyranoside (CPRG), and 0.1% Nonidet P-40 was added to each well and incubated for 4 h at 37 °C, […] protected from light. After that, measurement β-galactosidase activity was measured at 570 nm on a Varioskan, Thermo spectrophotometer. Nonspecific absorbance was subtracted from the measurement. Infected cells exposed to benznidazole were used as controls for anti-trypanosomal activity. Determinations were done in triplicate with at least two independent experiments.

Setting [3] is: Trypanosoma cruzi, TULAHUEN, U-937, 72 h, intracellular amastigotes of T. cruzi Tulahuen in U937 macrophages, 72 h, average ± SD (SEM), read-out: Trypanocidal Activity (EC50).

Where two headings read alike, the source gives them in different places.

As to `O=C(Cn1ccnc1[N+](=O)[O-])NCc1ccccc1` [BNZ, benznidazole, reference compound], the CC50 at 72 h in the series “in vitro” is above 768 µM. Further, in series [1], the “Cytotoxicity level (grade)” value is “no cytotoxicity”. Moreover, the EC50 was 56.5 ± 1.5 µM in series [2] (setting [3]) and 10 to 50 µM in series [2] (Trypanosoma cruzi, TULAHUEN, U-937, T. cruzi intracellular amastigotes, graded by EC50, read-out: Trypanocidal activity (grade)).

In the series “in vitro”, `CC(=O)c1cc(O)ccc1O` [Compound 6, 1-(2,5-Dihydroxyphenyl)ethan-1-one] registered a CC50 at 72 h below 10 µM. In series [1], the “Cytotoxicity level (grade)” value was “high (high when LC50 values were lower than 50 μM)” and the CC50 was found to be 6.3 µM. Besides, the “Trypanocidal activity compared with the control drug BNZ” value in series [2] is listed as “much better trypanocidal activity than the control drug BNZ”.

`CC(=O)c1c(O)ccc(CC=C(C)C)c1O` [Compound 16, 1-(2,6-Dihydroxy-3-(3-methylbut-2-en-1-yl)phenyl)ethan-1-one] registered a CC50 at 72 h in the series “in vitro” below 10 µM. In series [1], the “Cytotoxicity level (grade)” value was “high (high when LC50 values were lower than 50 μM)” and the CC50 worked out at 7.8 ± 3.1 µM. Further, the “SI (index of selectivity, IS = LC50/EC50)” value in series [2] is below 2. Besides, the EC50 in series [2] (Trypanosoma cruzi, TULAHUEN, U-937, 72 h, read-out: Trypanocidal Activity (EC50), intracellular amastigotes of T. cruzi Tulahuen in U937 macrophages, 72 h, average ± SD (SEM)) is above 4 µM.

As to `CC(=O)c1c(O)cccc1O` [Compound 7, 1-(2,6-Dihydroxyphenyl)ethan-1-one], the CC50 at 72 h in the series “in vitro” stood at 10.5 ± 0.6 µM. In series [1], this compound showed a CC50 of 15.3 ± 1.9 µM. Further, in series [2], the “SI (index of selectivity, IS = LC50/EC50)” value is recorded as 1.5 and the “Trypanocidal activity compared with the control drug BNZ” value is given as “much better trypanocidal activity than the control drug BNZ”. Also, the EC50 in series [2] (setting [3]) is below 10 µM. Further, the EC50 in series [2] (intracellular amastigotes of T. cruzi Tulahuen in U937 macrophages, 72 h, average ± SD (SEM), read-out: Trypanocidal Activity (EC50)) is 10.5 ± 0.6 µM.
